Measured values from patent US5601821A, “Immunoactive peptides and antibodies and their use in anti-allergy treatment” (National Research Development Corporation, priority 1989, dated 1997).
Where no end group is shown, it is not given here.

Assays:
[1] = test system: rats experimentally sensitised to ovalbumin; experiment: Serum histamine after systemic allergen (ovalbumin) challenge of sensitised, peptide-immunised rats; assay type: in vivo, rat
Protocol: Groups of rats (male, Wistar) were hypersensitized by subcutaneous injection of a mixture (0.5 ml) of 0.5 ml chicken egg white (200 mg protein) and 2.5 ml Bordetella pertussis (40×10^10 organisms/ml)by a well-established experimental procedure (Jasani, B. and Stanworth, D. R., Journal of Immunologlcal Methods, 30, pp. 55-68 (1979)).
Repeat subcutaneous injections of the peptide-carrier protein conjugate mixed with incomplete Freund's adjuvant (IFA) were administered at days 14 and 21.
The effect of pre- or post-sensitisation immunisation with peptide (as described in section (b) above) on the state of hypersensitivity of rats which had been experimentally sensitised to ovalbumin (according to Example 5(a) above) was determined by the following procedure; similar investigations were carried out on non-immunised groups of rats as a control.
Animals from both the immunized and control groups were bled (from the tail vein) prior to systemic allergen challenge by intrapenal injection of ovalbumin (5 mg). The animals were sacrificed 10 min. later, whereupon a further sample of blood was obtained from their hearts. The histamine levels in serum from both pre-and post-allergen challenge blood samples were determined by a standard automated spectrofluorimetric procedure; the antibody profiles of the sera being determined by ELISA (according to Example 5(c) above).

[2] = test system: rat peritoneal mast cells; parameters: dose or concentration left out as unconfirmed; conditions: concentration range; cited from earlier work
[3] = A: immunised with peptide (PPD conjugate) before experimental sensitisation
[4] = B: immunised with peptide (PPD conjugate) after experimental sensitisation

Row | Substance | Histamine release (mean allergen-induced serum histamine level) [1, 3] [ng/mL] | Histamine release (mean allergen-induced serum histamine level) [1, 4] [ng/mL] | effect on allergen-induced histamine release ([1]; pre- or post-immunisation of experimentally sensitised rats) | non-cytolytic histamine release from rat peritoneal mast cells [2]
1 | F57: non-histamine releasing analogue of F49 in which the N-terminal lysine residue is replaced by glycine (GYNGSNQRFFIF-NH2) | 606 | 1159 | no significant effect | 
2 | KTKGSGFF [octapeptide (sequence 497-504), human IgE Cε4 residues 497-504] |  |  |  | dose-dependent histamine release
3 | KTKGSGFFVF [decapeptide (sequence 497-506), human IgE Cε4 residues 497-506] |  |  |  | dose-dependent histamine release
4 | Lys-Tyr-Asn-Gly-Ser-Asn-Gln-Arg-Phe-Phe-Ile-Phe-NH2 (KYNGSNQRFFIF-NH2) [F49, histamine releasing rat ε-chain dodecapeptide] | 0 | 50 |  | 
5 | RKTKGSGFF [nonapeptide (sequence 496-504), human IgE Cε4 residues 496-504] |  |  |  | dose-dependent histamine release
